Laboratory results from patent US20220267269A1, “COMPOUNDS FOR THE MODULATION OF PROPROTEIN CONVERTASE SUBTILISIN/KEXIN TYPE 9 (PCSK9)” (SRX Cardio, LLC, priority 2019, published 2022).

Tests used:
PCSK9 [1] = biological target: T1, PCSK9 (Homo sapiens, UniProt Q8NBP7); assay: LDLR flow cytometric analysis (LDLR recovery in cells treated with recombinant PCSK9); type: cell-based
T1 construct: purchased Cayman Chemical 20631
Method: LDLR levels were measured using flow cytometry or fluorescence activated cell sorting (FACS) using protocols adapted from Benjannet et al., “Effects of the prosegment and pH on the activity of PCSK9: evidence for additional processing events” J Biol Chem. 285(52): 40965-40978 (2010) and “Composition and Methods of Use of Small Molecules as Binding Ligands for the Modulation of Proprotein Convertase Subtilisin/Kexin Type 9 (PCSK9) Protein Activity” (WO2016029037), which are incorporated by reference in their entirety.
Cells, such as HepG2, HuH7, FL83B, or a cell line transfected with a short-hairpin PCSK9 knockdown sequence such as HepG2/shPCSK9, HuH7/shPCSK9, or FL83B/shPCSK9 were cultured in media composed of complete, high glucose DMEM (Invitrogen) with 10% fetal bovine serum (Life Technologies), supplemented with penicillin-streptomycin (Life Technologies). Cells were plated in a 24-well plate, at 125 k cells/well, and cultured at 37° C. for 12-24 h. Culture media was removed and replaced with fresh culture media or culture media plus a predetermined amount of recombinant PCSK9 (for example, a final PCSK9 concentration of 5 μg/mL; Cayman Chemical, Ann Arbor, Mich., Catalog #20631). Wells evaluating test compounds were dosed with concentrations ranging from 0 nM to 100 μM.
Following an incubation period of 4-6 hours at 37° C., the media was removed and the cells rinsed by adding 0.5 ml of complete D-PBS (i.e., Dulbecco's phosphate buffered saline (D-PBS, Life Technologies) supplemented with 0.5% bovine serum albumin (BSA, Sigma) and 1 g/L glucose (Sigma)). The wash media was carefully aspirated, and cells released from the plate using 200 μL of TrypLE Express (Life Technologies) by incubating for 5-10 minutes at 37° C. The TrypLE-Cell suspension was inactivated by adding 100 μL of Fetal Bovine Serum, transferred to a v-bottom plate, and centrifuged at 250×gravity for 5 minutes. Following centrifugation, the supernatant was aspirated and the cell pellet is resuspended in 100 μL of complete D-PBS, and centrifuged at 250×gravity for 5 minutes. Following centrifugation, the supernatant was aspirated and the cell pellet was resuspended in 100 μL of antibody staining solution (600 μL of anti-LDLr-PE in complete D-PBS) and incubated on ice, protected from light, for 30 minutes. The cells were then pelleted by centrifugation, resuspended in 100 μL of 4′,6-Diamidino-2-phenylindole (DAPI, Cayman Chemical) or 7-aminoactinomycin D (7AAD, Life Technologies) staining solution to measure cell viability.
(§1) Cells were analyzed for both cell viability marker (dead cells) and LDLR in live cells using a flow cytometer per the manufacturer's operating manual. Cells incubated with small molecule compounds that are inhibitors of PCSK9 will be expected to show increased amounts of LDLR, relative to control (no compound) specimens, and cells incubated with small molecule compounds that are activators of PCSK9 will be expected to show decreased amounts of LDLR relative to control (no compound) specimens.
The percentage recovery in the LDLR assay at 10 μM concentration is provided as follows: +++: >80% recovery; ++: 40-80% recovery; +: 0-40% recovery.
The LDL-R EC50 is provided as follows: +++: <1; ++: 1 μM-5 μM; +: >5 μM.

PCSK9 [2] = biological target: T1, PCSK9; assay: Fluorescent-LDL uptake analysis by flow cytometric analysis; type: cell-based
Method: Cells, such as HuH7, FL83B, or a cell line transfected with a short-hairpin PCSK9 knockdown sequence such as HuH7/shPCSK9 or FL83B/shPCSK9 were plated and cultured at 37° C. for 12-24 h. Culture media was removed and replaced with fresh lipoprotein-depleted culture media supplemented with 5 μg/mL of fluorescently labeled LDL or lipoprotein-depleted culture media supplemented with 5 μg/mL of fluorescently labeled LDL plus a concentration of recombinant PCSK9 (for example 5 μg/mL recombinant PCSK9; Cayman Chemical, Cat. #20631). Examples of fluorescently labeled LDL include: DiI-LDL (Kalen Biomedical), or LDL conjugated to Dylight (e.g., LDL-Dylight 488, or LDL-Dylight 550 (Cayman Chemical, Cat. #10011229)). Lipoprotein-depleted culture media was composed of DMEM (Invitrogen) with 10% lipoprotein-depleted fetal bovine serum (Kalen Biomedical) and supplemented with penicillin-streptomycin (Life Technologies). Cells were dosed with small molecule test compounds at doses ranging from 0 nM to 100 μM, following a protocol adapted from Benjannet et al., “Effects of the prosegment and pH on the activity of PCSK9: evidence for additional processing events” J Biol Chem. 285(52):40965-40978 (2010), which is incorporated by reference in its entirety.
Following an incubation period of specified length, such as 16 hours, the lipoprotein-depleted media was removed and cells rinsed three times with a rinse solution (Dulbecco's phosphate buffered saline (D-PBS, Life Technologies), supplemented with 0.5% bovine serum albumin (BSA, Sigma) and 1 g/L glucose (Sigma)). The fluid was then removed, and cells are released from the plate using TrypLE Express (Life Technologies) per manufacturer's recommended procedures, such as incubation for 5-10 minutes at 37° C. The TyrpLE-Cell suspension was then transferred to 15 mL conical tubes, volume was increased to 2 mL with D-PBS supplemented with 0.5% BSA, and […], and the tubes were centrifuged at 250×gravity for 10 minutes. Following centrifugation, the supernatant was aspirated and the cell pellet was resuspended in 300 μL PBS and counterstained with 4′,6-diamidino-2-phenylindole (DAPI, Cayman Chemical) as a cell viability marker, other cell viability markers such as 7-aminoactinomycin D (7AAD, Life Technologies) have also been described in the art.
as §1, with “analyzed by” for “analyzed”, “both 7AAD” for “both cell viability marker”, “and fluorescent LDL” for “and LDLR”, “of LDL fluorescence,” for “of LDLR,”, “of LDL fluorescence” for “of LDLR”
The LDL-uptake EC50 is provided as follows: +++: <0.5 μM; ++: 0.5-1μM; +: >1 μM.

PCSK9 [3] = biological target: T1, PCSK9; assay: Biodesy direct binding measurement (second harmonic generation); settings: Biodesy Delta System
Text: Direct binding can be measured using the commercially available Biodesy Delta System (BDS, http://www.biodesy.com/products/; accessed Aug. 1, 2018). The BDS is a laser-based approach that utilizes second harmonic generation from a labeled protein to detect ligand binding, the method of which is covered and described by U.S. Pat. Nos. 9,395,358 and 8,932,822, and has been commercialized by Biodesy Inc. (South San Francisco, Calif.).

[4] = Microsomal stability analysis, mouse; type: in vitro ADME; settings: pH 7.4; mouse liver microsomes, 1 μM test compound; read-out: Microsomal Stability t1/2
Method: (§2) Microsomal stability was determined as follows:
(§3) The assay was carried out in 96-well microtiter plates at 37° C. Reaction mixtures (25 μL) contained a final concentration of 1 μM test compound, 0.5 mg/mL liver microsomes protein, and 1 mM NADPH and/or 1 mM UDPGA (with alamethicin) in 100 mM potassium phosphate, pH 7.4 buffer with 3 mM MgCl2. At each of the time points (for example, 0, 15, 30, and 60 minutes), 150 μL of quench solution (100% acetonitrile with 0.1% formic acid) with internal standard was transferred to each well. Besides the zero minute controls, mixtures containing the same components except the NADPH can also be prepared as the negative control. Verapamil was included as a positive control to verify assay performance. Plates were sealed, vortexed, and centrifuged at 4° C. for 15 minutes at 4000 rpm. The supernatant was transferred to fresh plates for LC/MS/MS analysis. The extent of metabolism was calculated as the disappearance of the test compound, compared to the 0-min time incubation. Initial rates were calculated for the compound concentration and used to determine t½ values.

[5] = Microsomal stability analysis, human; type: in vitro ADME; settings: pH 7.4; human liver microsomes, 1 μM test compound; read-out: Microsomal Stability t1/2
Method: as §2, §3

[6] = Microsomal stability analysis, rat; type: in vitro ADME; settings: pH 7.4; rat liver microsomes, 1 μM test compound; read-out: Microsomal Stability t1/2
Method: as §2, §3

T1 sequence (Q8NBP7 153-692): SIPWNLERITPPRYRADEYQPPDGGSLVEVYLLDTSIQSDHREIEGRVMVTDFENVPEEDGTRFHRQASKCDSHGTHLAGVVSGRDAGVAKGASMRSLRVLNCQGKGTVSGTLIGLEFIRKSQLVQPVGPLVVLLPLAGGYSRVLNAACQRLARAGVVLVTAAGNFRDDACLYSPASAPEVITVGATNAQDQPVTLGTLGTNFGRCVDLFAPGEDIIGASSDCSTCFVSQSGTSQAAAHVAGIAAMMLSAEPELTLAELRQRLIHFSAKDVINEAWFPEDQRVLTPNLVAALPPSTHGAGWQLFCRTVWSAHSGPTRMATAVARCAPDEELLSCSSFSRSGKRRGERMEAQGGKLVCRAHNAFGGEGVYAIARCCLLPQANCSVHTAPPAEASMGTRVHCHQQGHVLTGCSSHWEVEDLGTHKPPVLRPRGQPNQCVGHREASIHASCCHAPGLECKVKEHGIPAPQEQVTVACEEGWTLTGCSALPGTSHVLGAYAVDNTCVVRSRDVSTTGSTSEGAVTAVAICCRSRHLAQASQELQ

SMILES | EC50 (PCSK9 [1]) | EC50 (PCSK9 [2]) | ΔSHG (PCSK9 [3]) | half-life at 1 μM [4] | half-life at 1 μM [5] | half-life at 1 μM [6]
c1ccc(-c2ccc(C3CCCN(C4CCCC4)C3)cc2)cc1 (stereo not shown) [1,003, 3-([1,1′-biphenyl]-4-yl)-1-cyclopentylpiperidine] | 1 to 5 µM | – | – | – | – | –
c1cc(-c2ccc(C3CCCN(CC4CCCC4)C3)cc2)ccn1 (stereo not shown) [1,005, 4-(4-(1-(cyclopentylmethyl)piperidin-3-yl)phenyl) pyridine] | 1 to 5 µM | – | – | – | – | –
FC(F)(F)c1cccc(-c2ccc(C3CCCN(CC4CCCC4)C3)cc2)c1 (stereo not shown) [1,013, 1-(cyclopentylmethyl)-3-(3′-(trifluoromethyl)-[1,1′-biphenyl]-4-yl)piperidine] | – | > 1 µM | – | – | – | –
FC(F)(F)c1cc(C2CCCN(CC3CCOC3)C2)ccc1-c1ccccc1 (stereo not shown) [1,027, 1-((tetrahydrofuran-3-yl)methyl)-3-(2-(trifluoromethyl)-[1,1′-biphenyl]-4-yl)piperidine] | – | > 1 µM | – | – | – | –
Fc1cc(F)cc(-c2ccc(C3CCCN(CC4CCCC4)C3)cc2)c1 (stereo not shown) [1,029, 1-(cyclopentylmethyl)-3-(3′,5′-difluoro-[1,1′-biphenyl]-4-yl)piperidine] | – | 0.5 to 1 µM | – | – | – | –
Cc1cc(-c2ccc(Cl)cc2)ccc1C1CCCN(CC2CCCC2)C1 (stereo not shown) [1,039, 3-(4′-chloro-3-methyl-[1,1′-biphenyl]-4-yl)-1-(cyclopentylmethyl) piperidine] | – | 0.5 to 1 µM | – | – | – | –
Cc1cc(C2CCCN(C3CCCC3)C2)ccc1-c1ccc(Cl)cc1 (stereo not shown) [1,040, 3-(4′-chloro-2-methyl-[1,1′-biphenyl]-4-yl)-1-cyclopentylpiperidine] | – | 0.5 to 1 µM | – | – | – | –
Fc1ccc(-c2ccc(C3CCCN(CC4CC4)C3)cc2)cc1 (stereo not shown) [Compound 1,001, 1-(cyclopropylmethyl)-3-(4′-fluoro-[1,1′-biphenyl]-4-yl)piperidine] | 1 to 5 µM | – | > 10% | 25 min | > 120 min | 10 min
c1ccc(-c2ccc(C3CCCN(CC4CCCC4)C3)cc2)cc1 (stereo not shown) [Compound 1,006, 3-([1,1′-biphenyl]-4-yl)-1-(cyclopentylmethyl)piperidine] | 1 to 5 µM | 0.5 to 1 µM | – | 28 min | 22 min | 13 min
Fc1ccc(-c2ccc(C3CCCN(CC4CCCC4)C3)cc2)cc1 (stereo not shown) [Compound 1,009, 1-(cyclopentylmethyl)-3-(4′-fluoro-[1,1′-biphenyl]-4-yl)piperidine] | 1 to 5 µM | < 0.5 µM | – | 67 min | 86 min | 13 min
Clc1ccc(-c2ccc(C3CCCN(CC4CCCC4)C3)cc2)cc1 (stereo not shown) [Compound 1,010, 3-(4′-chloro-[1,1′-biphenyl]-4-yl)-1-(cyclopentylmethyl)piperidine] | > 5 µM | < 0.5 µM | – | 76 min | > 120 min | 15 min
FC(F)(F)c1ccc(-c2ccc(C3CCCN(CC4CCCC4)C3)cc2)cc1 (stereo not shown) [Compound 1,011, 1-(cyclopentylmethyl)-3-(4′-(trifluoromethyl)-[1,1′-biphenyl]-4-yl)piperidine] | < 1 µM | < 0.5 µM | – | 61 min | > 120 min | 17 min
Fc1ccc(-c2ccc(C3CCCN(Cc4ccccc4)C3)cc2)cc1 (stereo not shown) [Compound 1,035, 1-benzyl-3-(4′-fluoro-[1,1′-biphenyl]-4-yl)piperidine] | > 5 µM | 0.5 to 1 µM | – | – | – | –
